Measured values taken from patent publication US20050101595A1, “N-containing cycloalkyl-substituted amino-thiazole derivatives and pharmaceutical compositions for inhibiting cell proliferation and methods for their use” (PFIZER INC., priority 2003, published 2005).
Structures can show the parent of a compound that is named as a salt. Where two headings read alike, the source gives them in different places.

Columns and labels:
[1] = target: human CDK4 and genetically truncated (1-264) cyclin D3 (Homo sapiens, UniProt P11802); test: Inhibition of CDK4/Cyclin D Retinoblastoma Kinase Activity; format: biochemical; conditions: apparent Ki, CDK4/truncated cyclin D3, Rb fragment substrate, 25 μM ATP
Procedure, shortened: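 Human CDK4/truncated cyclin D3 (1-264) complex from baculovirus-infected insect cells, 5 nM, phosphorylating Rb fragment (residues 386-928, His-tagged) with 25 μM [32/33P]ATP in HEPES pH 7.4, MgCl2, 2% DMSO at 30° C. for 20 min (60 min for tight binders). Filter-captured radioactivity by phosphorimager; apparent Ki from competitive or tight-binding fits.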

CDK2/Cyclin A = CDK2/Cyclin A (Homo sapiens, UniProt P24941); test: Inhibition of CDK2/Cyclin A Retinoblastoma Kinase Activity; format: biochemical; conditions: apparent Ki, CDK2/proteolyzed cyclin A, Rb fragment substrate, 25 μM ATP
Procedure, shortened: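 Baculovirus-expressed CDK2 complexed with proteolyzed cyclin A (10 or 19 nM), Rb fragment substrate, 25 μM [32P/33P]ATP, HEPES pH 7.4, 30 °C for 60 or 75 min under initial-rate conditions. Filter capture and phosphorimager readout; apparent Ki fitted to competitive or tight-binding competitive inhibition.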

HCT-116 cell line = test: Inhibition of cell growth, tetrazolium salt (MTT) assay; format: cell-based; conditions: Homo sapiens, HCT-116, 120 h, MTT, three to five days, read-out: HCT-116 IC50
Procedure, shortened: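 Growth inhibition by MTT reduction at 540 nm (0.2 mg/mL, 4 h at 37° C, formazan dissolved in DMSO), normalized to cells given only 0.5% v/v DMSO. HCT-116 cultures in McCoy's 5A were dosed 4 h post-plating and kept three to five days at 37° C, 5% CO2.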

human CDK4 and genetically truncated (1-264) cyclin D3, sequence (P11802 whole entry, the tested form may be a part): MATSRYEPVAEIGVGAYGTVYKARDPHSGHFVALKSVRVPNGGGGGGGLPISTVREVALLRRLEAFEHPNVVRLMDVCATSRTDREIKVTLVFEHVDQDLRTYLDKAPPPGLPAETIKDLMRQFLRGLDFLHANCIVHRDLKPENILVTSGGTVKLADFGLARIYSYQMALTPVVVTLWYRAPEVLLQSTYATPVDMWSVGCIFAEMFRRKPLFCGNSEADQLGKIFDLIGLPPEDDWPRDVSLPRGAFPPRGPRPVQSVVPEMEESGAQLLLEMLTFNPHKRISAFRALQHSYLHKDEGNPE
human CDK4 and genetically truncated (1-264) cyclin D3, sequence (P30281 1-264 partner): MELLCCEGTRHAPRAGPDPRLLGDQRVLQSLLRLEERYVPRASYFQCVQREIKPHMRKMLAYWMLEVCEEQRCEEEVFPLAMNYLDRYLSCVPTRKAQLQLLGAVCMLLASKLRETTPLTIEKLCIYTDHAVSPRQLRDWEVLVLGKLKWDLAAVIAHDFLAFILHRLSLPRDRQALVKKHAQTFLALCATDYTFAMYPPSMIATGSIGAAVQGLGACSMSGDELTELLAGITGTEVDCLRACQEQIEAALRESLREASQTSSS

SMILES	Ki [1]	Ki (CDK2/Cyclin A)	IC50 (HCT-116 cell line; first HCT-116 column (c4))	IC50 (HCT-116 cell line; second HCT-116 column (c5))
Nc1nc(NC2CCN(S(=O)(=O)c3ccc(-c4ncc[nH]4)nc3)CC2)sc1C(=O)c1c(F)cccc1F [Example I1, 1-(4-Amino-2-{1-[6-(1H-imidazol-2-yl)-pyridine-3-sulfonyl]-piperidin-4-ylamino}-thiazol-5-yl)-1-(2,6-difluoro-phenyl)-methanone Hydrochloride]	0.56 nM	0.26 nM	300 nM	500 nM
Cc1c[nH]c(-c2ccc(S(=O)(=O)N3CCC(Nc4nc(N)c(C(=O)c5c(F)cccc5F)s4)CC3)cn2)n1 [Example I2, 1-(4-Amino-2-{1-[6-(4-methyl-1H-imidazol-2-yl)-pyridine-3-sulfonyl]-piperidin-4-ylamino}-thiazol-5-yl)-1-(2,6-difluoro-phenyl)-methanone Hydrochloride]	0.72 nM	0.41 nM	240 nM	1400 nM
Cn1ccnc1-c1ccc(S(=O)(=O)N2CCC(Nc3nc(N)c(C(=O)c4c(F)cccc4F)s3)CC2)cn1 [Example I3, 1-(4-Amino-2-{1-[6-(1-methyl-1H-imidazol-2-yl)-pyridine-3-sulfonyl]-piperidin-4-ylamino}-thiazol-5-yl)-1-(2,6-difluoro-phenyl)-methanone Trifluoroacetic Acid Salt]	2 nM	1.7 nM	160 nM	500 nM
Nc1nc(NC2CCN(S(=O)(=O)c3ccc(Cc4ncc[nH]4)nc3)CC2)sc1C(=O)c1c(F)cccc1F [Example I4, 1-(4-Amino-2-{1-[6-(1H-imidazol-2-ylmethyl)-pyridine-3-sulfonyl]-piperidin-4-ylamino}-thiazol-5-yl)-1-(2,6-difluoro-phenyl)-methanone Hydrochloride]	1.8 nM	< 1 nM	1900 nM	4700 nM
Cn1cnc(-c2ccc(S(=O)(=O)N3CCC(Nc4nc(N)c(C(=O)c5c(F)cccc5F)s4)CC3)cn2)c1 [Example I5, Hydrochloride]	0.67 nM	5.1 nM	80 nM	500 nM
Nc1nc(NC2CCN(S(=O)(=O)c3ccc(-c4cccnc4)nc3)CC2)sc1C(=O)c1c(F)cccc1F [Example I6, 1-{4-Amino-2-[1-([2,3′]bipyridinyl-5-sulfonyl)-piperidin-4-ylamino]-thiazol-5-yl}-1-(2,6-difluoro-phenyl)-methanone Hydrochloride]	0.37 nM	0.32 nM	37 nM	110 nM
Nc1nc(NC2CCN(S(=O)(=O)c3ccc(-c4ccncc4)nc3)CC2)sc1C(=O)c1c(F)cccc1F [Example I7, 1-{4-Amino-2-[1-([2,4′]bipyridinyl-5-sulfonyl)-piperidinin-4-ylamino]-thiazol-5-yl}-1-(2,6-difluoro-phenyl)-methanone]	0.38 nM	< 1 nM	1300 nM	5000 nM
CN(C)CC#Cc1ccc(S(=O)(=O)N2CCC(Nc3nc(N)c(C(=O)c4c(F)cccc4F)s3)CC2)cn1 [Example I11, 1-(4-Amino-2-{1-[6-(3-dimethylamino-prop-1-ynyl)-pyridine-3-sulfonyl]-piperidin-4-ylamino}-thiazol-5-yl)-1-(2,6-difluoro-phenyl)-methanone]	0.5 nM	< 0.5 nM	16 nM	25 nM
CN(C)CCCc1ccc(S(=O)(=O)N2CCC(Nc3nc(N)c(C(=O)c4c(F)cccc4F)s3)CC2)cn1 [Example I12, 1-(4-Amino-2-{1-[6-(3-dimethylamino-propyl)-pyridine-3-sulfonyl]-piperidin-4-ylamino}-thiazol-5-yl)-1-(2,6-difluoro-phenyl)-methanone]	1.1 nM	1.3 nM	300 nM	3400 nM
Nc1nc(NC2CCN(S(=O)(=O)c3ccc(CCCN4CCCC4)nc3)CC2)sc1C(=O)c1c(F)cccc1F [Example I13, 1-(4-Amino-2-{1-[6-(3-pyrrolidin-1-yl-propyl)-pyridine-3-sulfonyl]-piperidin-4-ylamino}-thiazol-5-yl)-1-(2,6-difluoro-phenyl)-methanone Trifluoroacetic Acid Salt]	0.45 nM	1.3 nM	280 nM	600 nM
Nc1nc(NC2CCN(S(=O)(=O)c3ccc(CCCN4CCCCC4)nc3)CC2)sc1C(=O)c1c(F)cccc1F [Example I14, 1-(4-Amino-2-{1-[6-(3-piperidin-1-yl-propyl)-pyridine-3-sulfonyl]-piperidin-4-ylamino}-thiazol-5-yl)-1-(2,6-difluoro-phenyl)-methanone Trifluoroacetic Acid Salt]	0.57 nM	1.2 nM	140 nM	300 nM
CN1CCN(Cc2ccc(S(=O)(=O)N3CCC(Nc4nc(N)c(C(=O)c5c(F)cccc5F)s4)CC3)cc2)CC1 [Example J7]	0.78 nM	1.9 nM	130 nM	300 nM

The remaining lines, values ahead:

Ki [1]	Ki (CDK2/Cyclin A)	IC50 (HCT-116 cell line; first HCT-116 column (c4))	IC50 (HCT-116 cell line; second HCT-116 column (c5))	SMILES
0.48 nM	0.3 nM	71 nM	500 nM	Nc1nc(NC2CCN(S(=O)(=O)c3ccc(-c4cccnc4)cc3)CC2)sc1C(=O)c1c(F)cccc1F [Example I8, 1-{4-Amino-2-[1-(4-pyridin-3-yl-benzenesulfonyl)-piperidin-4-ylamino]-thiazol-5-yl}-1-(2,6-difluoro-phenyl)-methanone Trifluoroacetic Acid Salt]
0.68 nM	1.2 nM	200 nM	1900 nM	CN(C)CCCc1ccc(S(=O)(=O)N2CCC(Nc3nc(N)c(C(=O)c4c(F)cccc4F)s3)CC2)cc1 [Example I10, 1-(4-Amino-2-{1-[4-(3-dimethylamino-propyl)-benzenesulfonyl]-piperidin-4-ylamino}-thiazol-5-yl)-1-(2,6-difluoro-phenyl)-methanone D-Glucuronic Acid Salt]
0.63 nM	< 1 nM	1200 nM	5000 nM	CN1CCN=C1c1ccc(S(=O)(=O)N2CCC(Nc3nc(N)c(C(=O)c4c(F)cccc4F)s3)CC2)cc1 [Example J1, 1-[4-Amino-2-{1-[4-(1-methyl-4,5-dihydro-1H-imidazol-2-yl)-benzenesulfonyl]-piperidin-4-ylamino}-thiazol-5-yl)-1-(2,6-difluoro-phenyl)-methanone]
0.18 nM	< 1 nM	500 nM	1800 nM	CC1(C)CN=C(c2ccc(S(=O)(=O)N3CCC(Nc4nc(N)c(C(=O)c5c(F)cccc5F)s4)CC3)cc2)N1 [Example J2, 1-(4-Amino-2-{1-[4-(5,5-dimethyl-4,5-dihydro-1H-imidazol-2-yl)-benzenesulfonyl]-piperidin-4-ylamino}-thiazol-5-yl)-1-(2,6-difluoro-phenyl)-methanone]
0.25 nM	< 1 nM	> 5000 nM	> 5000 nM	N=C(N)c1ccc(S(=O)(=O)N2CCC(Nc3nc(N)c(C(=O)c4c(F)cccc4F)s3)CC2)cc1 [Example J3, 4-(4-{4-Amino-5-[1-(2,6-difluoro-phenyl)-methanoyl]-thiazol-2-ylamino}-piperidine-1-sulfonyl)-benzamidine]
1.7 nM	< 1 nM	> 5000 nM	> 5000 nM	Nc1nc(NC2CCN(S(=O)(=O)c3ccc(-c4nnn[nH]4)cc3)CC2)sc1C(=O)c1c(F)cccc1F [Example J4, 1-(4-Amino-2-{1-[4-(1H-tetrazol-5-yl)-benzenesulfonyl]-piperidin-4ylamino}-thiazol-5-yl)-1-(2,6-difluoro-phenyl)-methanone Trifluoroacetic Acid Salt]
3.9 nM	2.8 nM	210 nM	480 nM	Nc1nc(NC2CCN(S(=O)(=O)c3ccc(C4=NCCO4)cc3)CC2)sc1C(=O)c1c(F)cccc1F [Example J5, 1-(4-Amino-2-{1-[4-(4,5-dihydro-oxazol-2-yl)-benzenesulfonyl]-piperidin-4-ylamino}-thiazol-5-yl)-1-(2,6-difluoro-phenyl)-methanone]
0.58 nM	< 1 nM	390 nM	2000 nM	Nc1nc(NC2CCN(S(=O)(=O)c3ccc(CN4CCCC4)cc3)CC2)sc1C(=O)c1c(F)cccc1F [Example J6, 1-{4-Amino-2-[1-(4-pyrrolidin-1-ylmethyl-benzenesulfonyl)-piperidin-4-ylamino]-thiazol-5-yl}-1-(2,6-difluoro-phenyl)-methanone Hydrochloride]
1.2 nM	1.3 nM	98 nM	400 nM	Nc1nc(NC2CCN(S(=O)(=O)c3ccc(CN4CCOCC4)cc3)CC2)sc1C(=O)c1c(F)cccc1F [Example J8, 1-{4-Amino-2-[1-(4-morpholin4-ylmethyl-benzenzsulfonyl)-piperidin-4-ylamino]-thiazol-5-yl}-1-(2,6-difluoro-phenyl)-methanone Hydrochloride Salt]
